{"source": "ChEMBL document CHEMBL1201862", "about": "“PubChem BioAssay data set” (2004)", "key": {"Bcl-2-related protein A1 [1]": {"biological_target": "T1, Bcl-2-related protein A1 (Mus musculus, UniProt Q07440)", "T1 sequence (Q07440 whole entry)": "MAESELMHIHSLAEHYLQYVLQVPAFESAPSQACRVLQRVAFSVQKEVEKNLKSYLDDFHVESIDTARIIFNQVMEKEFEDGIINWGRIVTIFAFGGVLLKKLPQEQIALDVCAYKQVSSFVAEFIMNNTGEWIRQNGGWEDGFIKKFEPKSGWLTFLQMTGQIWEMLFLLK", "test": "displacement of Bid BH3 peptide from Bfl-1 – biochemical, fluorescence polarization, FITC-Bid, mouse, primary screen (AID 432)"}, "Bcl-2-related protein A1 [2]": {"biological_target": "T1, Bcl-2-related protein A1", "test": "small-molecule antagonists of Bfl-1/BH3 interaction – biochemical, TR-FRET, mouse Bfl-1, confirmation (AID 621);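 note: TR-FRET binding of GST-Bfl-1 to FITC-labelled Bid peptide via terbium antibody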"}, "[3]": {"test": "Luminescence Cell-Based Dose Confirmation HTS to Identify Activators of 5'UTR Stem-Loop Driven Alpha-Synuclein mRNA Translation in H4 Neuroglioblastoma Cells. [Related pubchem assays: 1829 (Project Summary), 1814 (Primary HTS)]", "type": "functional"}, "[4]": {"test": "Luminescence Cell-Based Dose Response HTS to Identify Activators of Luciferase Translation or Activity in H4 […] Cells. [Related pubchem assays: 1829 (Project Summary), 1814 (Primary HTS)]", "type": "functional"}, "H4": {"system": "H4", "test": "Luminescence Cell-Based Dose Response HTS to Identify Activators of 5'UTR Stem-Loop Driven Prion Protein mRNA Translation in H4 Neuroglioblastoma Cells. [Related pubchem assays: 1829 (Project Summary), 1814 (Primary HTS)]", "type": "functional", "details": "Homo sapiens"}, "[5]": {"biological_target": "Mitogen-activated protein kinase 10 (Homo sapiens, UniProt P53779)", "sequence (P53779 whole entry)": "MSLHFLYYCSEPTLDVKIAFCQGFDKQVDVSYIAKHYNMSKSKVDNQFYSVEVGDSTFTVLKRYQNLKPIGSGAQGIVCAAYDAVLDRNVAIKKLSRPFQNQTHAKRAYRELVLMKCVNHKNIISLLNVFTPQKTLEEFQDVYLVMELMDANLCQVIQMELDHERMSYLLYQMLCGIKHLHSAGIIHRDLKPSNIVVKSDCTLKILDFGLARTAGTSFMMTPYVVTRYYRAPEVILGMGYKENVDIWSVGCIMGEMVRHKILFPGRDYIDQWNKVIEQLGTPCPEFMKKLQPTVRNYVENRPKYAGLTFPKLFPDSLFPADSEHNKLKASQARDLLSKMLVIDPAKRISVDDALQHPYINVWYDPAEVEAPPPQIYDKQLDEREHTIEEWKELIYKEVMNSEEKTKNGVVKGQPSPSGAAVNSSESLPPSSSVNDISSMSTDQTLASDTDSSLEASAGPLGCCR", "test": "Dose response biochemical screening assay for inhibitors of c-Jun N-Terminal Kinase 3 (JNK3). [Related pubchem assays: 746 ]"}, "Bcl-2-like protein 10": {"biological_target": "T2, Bcl-2-like protein 10 (Homo sapiens, UniProt Q9HD36)", "T2 sequence (Q9HD36 whole entry)": "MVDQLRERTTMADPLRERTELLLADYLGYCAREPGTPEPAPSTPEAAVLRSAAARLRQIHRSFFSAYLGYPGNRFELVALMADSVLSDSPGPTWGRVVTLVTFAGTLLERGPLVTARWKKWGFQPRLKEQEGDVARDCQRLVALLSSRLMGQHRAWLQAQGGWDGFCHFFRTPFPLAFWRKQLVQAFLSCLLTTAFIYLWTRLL", "test": "Bcl-B/TR3 peptide binding disruption – biochemical, fluorescence polarization, FITC-TR3 peptide, selectivity assay for Bfl-1 inhibitor project, primary screen (AID 748);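 note: fluorescence polarization from a fluorescein-labelled TR3 peptide binding purified Bcl-B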"}, "14-3-3 protein gamma": {"biological_target": "14-3-3 protein gamma (Homo sapiens, UniProt P61981)", "sequence (P61981 whole entry)": "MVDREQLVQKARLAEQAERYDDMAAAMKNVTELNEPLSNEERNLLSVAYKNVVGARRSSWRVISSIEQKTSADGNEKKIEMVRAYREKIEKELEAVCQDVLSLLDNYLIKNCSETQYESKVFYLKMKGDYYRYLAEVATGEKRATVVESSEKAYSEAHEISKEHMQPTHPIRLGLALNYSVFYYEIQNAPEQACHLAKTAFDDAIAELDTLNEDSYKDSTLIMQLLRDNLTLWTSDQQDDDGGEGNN", "test": "modulators of 14-3-3 gamma client binding – dose response (AID 711)", "type": "functional"}, "[6]": {"biological_target": "DNA dC->dU-editing enzyme APOBEC-3A (Homo sapiens, UniProt P31941)", "sequence (P31941 whole entry)": "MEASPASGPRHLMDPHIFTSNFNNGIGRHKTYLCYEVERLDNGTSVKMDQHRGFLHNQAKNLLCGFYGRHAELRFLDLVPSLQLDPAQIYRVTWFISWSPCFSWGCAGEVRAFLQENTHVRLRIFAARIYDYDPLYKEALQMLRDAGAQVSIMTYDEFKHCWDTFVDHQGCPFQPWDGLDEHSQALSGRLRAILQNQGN", "test": "Dose Response confirmation of small molecule APOBEC3A DNA Deaminase Inhibitors via a fluorescence-based single-stranded DNA deaminase assay. [Related pubchem assays (depositor defined):AID493011, AID493024]", "type": "functional"}, "[7]": {"biological_target": "DNA dC->dU-editing enzyme APOBEC-3G (Homo sapiens, UniProt Q9HC16)", "sequence (Q9HC16 whole entry)": "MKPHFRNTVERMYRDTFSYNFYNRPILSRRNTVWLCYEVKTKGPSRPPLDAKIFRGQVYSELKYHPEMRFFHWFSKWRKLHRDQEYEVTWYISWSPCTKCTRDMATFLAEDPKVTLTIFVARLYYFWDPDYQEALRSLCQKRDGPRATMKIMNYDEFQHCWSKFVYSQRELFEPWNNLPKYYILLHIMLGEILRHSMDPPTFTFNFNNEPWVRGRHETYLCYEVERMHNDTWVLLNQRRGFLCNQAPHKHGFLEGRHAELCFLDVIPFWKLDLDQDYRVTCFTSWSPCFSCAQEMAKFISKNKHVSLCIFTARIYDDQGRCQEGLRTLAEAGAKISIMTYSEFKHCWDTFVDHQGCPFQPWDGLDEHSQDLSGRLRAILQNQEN", "type": "functional"}, "Estrogen receptor": {"biological_target": "T3, Estrogen receptor (Homo sapiens, UniProt P03372)", "T3 sequence (P03372 whole entry)": "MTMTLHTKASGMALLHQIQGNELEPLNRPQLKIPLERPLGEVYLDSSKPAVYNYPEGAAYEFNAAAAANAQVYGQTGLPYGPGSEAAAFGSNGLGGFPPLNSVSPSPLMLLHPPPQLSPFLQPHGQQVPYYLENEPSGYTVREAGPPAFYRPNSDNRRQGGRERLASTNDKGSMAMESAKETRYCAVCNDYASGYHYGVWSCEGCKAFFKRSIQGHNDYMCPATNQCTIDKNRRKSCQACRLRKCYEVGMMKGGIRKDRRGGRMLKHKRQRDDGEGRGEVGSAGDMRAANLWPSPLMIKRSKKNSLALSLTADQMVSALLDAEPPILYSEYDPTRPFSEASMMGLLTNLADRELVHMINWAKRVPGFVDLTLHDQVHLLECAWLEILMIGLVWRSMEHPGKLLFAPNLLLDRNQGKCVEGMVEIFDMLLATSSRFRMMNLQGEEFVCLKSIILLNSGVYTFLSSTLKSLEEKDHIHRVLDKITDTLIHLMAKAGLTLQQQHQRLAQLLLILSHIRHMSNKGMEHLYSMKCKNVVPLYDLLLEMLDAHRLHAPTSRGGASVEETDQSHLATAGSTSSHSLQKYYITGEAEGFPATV"}, "Estrogen receptor beta [8]": {"biological_target": "T4, Estrogen receptor beta (Homo sapiens, UniProt Q92731)", "T4 sequence (Q92731 whole entry)": "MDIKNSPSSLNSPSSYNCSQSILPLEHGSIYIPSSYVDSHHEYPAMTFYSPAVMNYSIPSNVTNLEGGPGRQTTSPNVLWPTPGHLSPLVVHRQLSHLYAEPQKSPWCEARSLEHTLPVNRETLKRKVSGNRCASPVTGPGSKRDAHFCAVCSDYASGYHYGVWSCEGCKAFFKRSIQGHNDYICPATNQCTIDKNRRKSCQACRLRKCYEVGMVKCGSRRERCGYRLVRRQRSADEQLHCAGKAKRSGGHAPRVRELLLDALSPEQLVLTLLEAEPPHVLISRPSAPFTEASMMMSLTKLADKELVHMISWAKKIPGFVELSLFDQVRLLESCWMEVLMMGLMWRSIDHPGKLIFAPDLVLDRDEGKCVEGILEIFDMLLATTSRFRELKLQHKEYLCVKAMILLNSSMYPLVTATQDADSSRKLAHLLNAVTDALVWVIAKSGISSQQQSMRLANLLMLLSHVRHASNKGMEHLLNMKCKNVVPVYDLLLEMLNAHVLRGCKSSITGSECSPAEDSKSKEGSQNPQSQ"}, "Estrogen receptor beta [9]": {"biological_target": "T4, Estrogen receptor beta", "test": "blockers of SRC-3 recruitment to ERβ – biochemical, ELISA, streptavidin-HRP readout, orthogonal assay, confirmation (AID 1060)"}, "[10]": {"biological_target": "T5, Carboxy-terminal domain RNA polymerase II polypeptide A small phosphatase 1 (Homo sapiens, UniProt Q9GZU7)", "T5 sequence (Q9GZU7 whole entry)": "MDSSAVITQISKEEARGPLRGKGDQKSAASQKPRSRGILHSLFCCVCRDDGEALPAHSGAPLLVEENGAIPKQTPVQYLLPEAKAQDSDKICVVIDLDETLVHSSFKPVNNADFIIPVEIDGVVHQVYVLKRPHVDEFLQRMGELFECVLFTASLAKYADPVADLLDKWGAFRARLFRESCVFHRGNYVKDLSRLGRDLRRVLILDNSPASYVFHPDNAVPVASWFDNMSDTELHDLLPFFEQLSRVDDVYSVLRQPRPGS", "test": "CTDSP1 inhibitors, concentration-response, biochemical, absorbance readout, ultra-high-throughput screen actives (AID 540297)", "type": "functional"}, "[11]": {"biological_target": "E3 ubiquitin-protein ligase UHRF1 (Homo sapiens, UniProt Q96T88)", "sequence (Q96T88 whole entry, the tested form may be a part)": "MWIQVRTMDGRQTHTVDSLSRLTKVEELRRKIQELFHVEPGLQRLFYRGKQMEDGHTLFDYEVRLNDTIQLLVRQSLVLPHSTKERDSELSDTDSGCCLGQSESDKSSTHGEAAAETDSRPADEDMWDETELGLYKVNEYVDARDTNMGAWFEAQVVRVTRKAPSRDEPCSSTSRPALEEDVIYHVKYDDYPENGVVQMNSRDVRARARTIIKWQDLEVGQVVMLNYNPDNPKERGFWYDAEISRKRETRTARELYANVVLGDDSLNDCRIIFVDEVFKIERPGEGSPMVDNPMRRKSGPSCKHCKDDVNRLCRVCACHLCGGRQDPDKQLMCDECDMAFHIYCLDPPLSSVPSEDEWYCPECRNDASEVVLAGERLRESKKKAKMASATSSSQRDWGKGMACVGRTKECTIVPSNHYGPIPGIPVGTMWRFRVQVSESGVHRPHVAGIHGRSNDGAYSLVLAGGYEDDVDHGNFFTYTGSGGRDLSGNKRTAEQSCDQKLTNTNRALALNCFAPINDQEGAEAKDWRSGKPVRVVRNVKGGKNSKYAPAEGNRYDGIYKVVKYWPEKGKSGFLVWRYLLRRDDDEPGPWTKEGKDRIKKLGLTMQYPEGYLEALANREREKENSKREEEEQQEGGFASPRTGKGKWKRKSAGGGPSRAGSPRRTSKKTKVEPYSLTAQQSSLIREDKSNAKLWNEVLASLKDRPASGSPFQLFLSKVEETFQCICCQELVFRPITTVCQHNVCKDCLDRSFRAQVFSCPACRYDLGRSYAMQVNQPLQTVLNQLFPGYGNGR", "test": "Counterscreen for inhibitors of 5-meCpG-binding domain protein 2 (MBD2): TRFRET-based biochemical high throughput dose response assay to identify inhibitors of binding of ubiquitin-like with PHD and ring finger domains 1 (UHRF1) to methylated oligonucleotide."}, "BJ [12]": {"system": "BJ", "test": "BJ-TERT fibroblast viability loss – cell-based, RAS-independent, luminescence, dose response (AID 1933)", "type": "functional", "details": "Homo sapiens"}, "Vero [13]": {"system": "Vero", "test": "mammalian cell viability reduction – secondary assay, cytotoxicity control for West Nile virus antiviral project, dose response (AID 1650)", "type": "functional", "details": "Chlorocebus sabaeus"}, "BJ [14]": {"system": "BJ", "test": "cells", "type": "functional, cell-based", "details": "Homo sapiens"}, "Vero [15]": {"system": "Vero", "test": "inhibition of WNV-induced cytopathic effect – cell-based, CPE readout (AID 1621)", "type": "functional", "details": "Chlorocebus sabaeus"}, "BJ [16]": {"system": "BJ", "test": "BJ-TERT-LT-ST fibroblast viability loss – cell-based, RAS-independent, luminescence, dose response (AID 1935);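 note: BJ fibroblasts immortalized with TERT plus LT and ST oncogenes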", "type": "functional", "details": "Homo sapiens"}, "[17]": {"test": "DRD fibroblast viability loss – cell-based, non-viral oncogenic, luminescence, dose response (AID 1934)", "type": "functional", "details": "Homo sapiens"}, "Vero [18]": {"system": "Vero", "test": "cells", "type": "functional, cell-based", "details": "Chlorocebus sabaeus"}, "BJ [19]": {"system": "BJ", "test": "growth inhibition of engineered Ras-driven BJ cells – cell-based, alamar blue fluorescence, cherrypicked samples, dose response (AID 2631)", "type": "functional", "details": "Homo sapiens"}, "Vero [20]": {"system": "Vero", "test": "cells", "type": "functional", "details": "Chlorocebus sabaeus"}, "[21]": {"biological_target": "Muscarinic acetylcholine receptor M1 (Rattus norvegicus, UniProt P08482)", "sequence (P08482 whole entry)": "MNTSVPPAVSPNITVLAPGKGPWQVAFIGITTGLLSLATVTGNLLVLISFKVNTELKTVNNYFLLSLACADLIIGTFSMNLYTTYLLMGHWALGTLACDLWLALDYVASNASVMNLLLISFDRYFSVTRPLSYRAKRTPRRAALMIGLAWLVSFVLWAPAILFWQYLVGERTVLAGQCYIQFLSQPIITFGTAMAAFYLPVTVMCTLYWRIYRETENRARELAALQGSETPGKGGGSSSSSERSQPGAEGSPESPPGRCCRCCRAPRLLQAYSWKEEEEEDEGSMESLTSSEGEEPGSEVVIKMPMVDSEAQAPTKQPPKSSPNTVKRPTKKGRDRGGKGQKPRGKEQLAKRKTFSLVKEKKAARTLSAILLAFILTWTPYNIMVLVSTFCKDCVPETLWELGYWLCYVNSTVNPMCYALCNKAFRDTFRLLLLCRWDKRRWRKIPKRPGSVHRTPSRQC", "test": "concentration-dependent potentiation of ACh at M1 – cell-based, calcium mobilization, CHO-K1, ACh EC20, dose response (AID 2425)", "type": "functional"}, "[22]": {"test": "viability of PTEN-deleted HCT116 cells – cell-based, HCT116 PTEN knockout, dose response (AID 1047);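 note: HCT116 colon tumor cells with PTEN knocked out; cells exposed to compound for 60 hours before readout; potency for loss of cell viability measured by luminescence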", "type": "functional"}, "[23]": {"test": "viability of HCT116 lacking mutant beta-catenin – cell-based, human colon tumor, dose response (AID 1045);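 note: HCT116 colon tumor cells with beta catenin knocked out; cells exposed to compound for 60 hours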", "type": "functional"}}, "note": "Activity calls are given as the source filed them."}
{"molecule": "OCCCc1nc2n(n1)C(c1cccs1)C=C(c1ccccc1)N2", "note": "(configuration not stated)", "values": [{"measurement": "IC50", "setting": "Bcl-2-related protein A1 [1]", "value": "> 100 µM (not active)"}, {"measurement": "IC50", "setting": "Bcl-2-related protein A1 [2]", "value": "> 100 µM (not active)"}]}
{"molecule": "CC1=CC(=C2C(=O)c3ccccc3C2=O)C=C(C)N1C", "values": [{"measurement": "EC50", "setting": "[3]", "value": "53.3 µM (active)"}, {"measurement": "EC50", "setting": "[4]", "value": "29.3 µM (active)"}, {"measurement": "EC50", "setting": "H4", "value": "57.2 µM (active)"}, {"measurement": "IC50", "setting": "[5]", "value": "42.1 µM (not active)"}]}
{"molecule": "Cc1nc2ccc(C(=O)O)cc2c2c1CC(C)S2", "note": "(configuration not stated)", "values": [{"measurement": "IC50", "setting": "Bcl-2-like protein 10", "value": "> 100 µM (inactive)"}, {"measurement": "IC50", "setting": "14-3-3 protein gamma", "value": "25.7 µM (active)"}, {"measurement": "IC50", "setting": "[6]", "value": "16.2 µM (active)"}, {"measurement": "IC50", "setting": "[7]", "value": "26.3 µM (active)"}]}
{"molecule": "O=C(Cc1coc2cc3c(cc12)CCC3)OCc1cc(=O)n2c(n1)sc1ccccc12", "values": [{"measurement": "IC50", "setting": "Estrogen receptor", "value": "4.83 µM (active)"}, {"measurement": "IC50", "setting": "Estrogen receptor beta [8]", "value": "3.05 µM (active)"}, {"measurement": "IC50", "setting": "Estrogen receptor beta [9]", "value": "17.6 µM (not active)"}, {"measurement": "IC50", "setting": "[10]", "value": "4.58 µM (active)"}, {"measurement": "IC50", "setting": "[11]", "value": "> 43.8 µM (inactive)"}]}
{"molecule": "Cc1ccc(NC(=O)[C@H](Cc2c[nH]c3ccccc23)NC(=O)[C@@H]2Cc3ccccc3CN2)c(C)c1", "values": [{"measurement": "EC50", "setting": "BJ [12]", "value": "21.1 µM (active)"}, {"measurement": "CC50", "setting": "Vero [13]", "value": "12.5 µM (active)"}, {"measurement": "EC50", "setting": "BJ [14]", "value": "20.7 µM (active)"}, {"measurement": "IC50", "setting": "Vero [15]", "value": "43.3 µM (active)"}, {"measurement": "EC50", "setting": "BJ [16]", "value": "> 150 µM (not active)"}, {"measurement": "EC50", "setting": "[17]", "value": "112 µM (inconclusive)"}, {"measurement": "IC50", "setting": "Vero [18]", "value": "1.91 µM (active)"}, {"measurement": "EC50", "setting": "BJ [19]", "value": "> 133 µM (inactive)"}, {"measurement": "CC50", "setting": "Vero [20]", "value": "15.9 µM (active)"}]}
{"molecule": "Cc1cc(NC(=O)CS(=O)(=O)c2cn(Cc3ccccc3Cl)c3ccccc23)no1", "values": [{"measurement": "EC50", "setting": "[21]", "value": "9.13 µM (active)"}, {"measurement": "EC50", "setting": "[22]", "value": "41.3 µM (active)"}, {"measurement": "EC50", "setting": "[23]", "value": "72.8 µM (active)"}]}
